# Test results taken from ChEMBL document CHEMBL5715952 (Oncotarget, 2015).
# Active and inactive are the calls of the source. No cut-off for these calls is given here.
# Columns and labels:
# [1] = test system: Bortezomib-resistant ANBL6; experiment: Synergistic apoptosis activity in human bortezomib-resistant ANBL6 cells assessed as viable at 1600 nM incubated for 72 hrs in the presence of BTZ by annexin V and 7-AAD staining by flow cytometry analysis (Rvb=80 %); type: functional
# [2] = test system: Bortezomib-resistant ANBL6; experiment: Induction of apoptosis in human bortezomib-resistant ANBL6 cells assessed as early apoptosis at 160 nM incubated for 72 hrs by annexin V and 7-AAD staining by flow cytometry analysis (Rvb=15 %); type: functional
# [3] = test system: ANBL-6; experiment: Induction of apoptosis in wild-type human ANBL-6 cells assessed as late apoptosis at 1600 nM incubated for 72 hrs by annexin V and 7-AAD staining by flow cytometry analysis (Rvb=26 %); type: functional
# [4] = test system: Bortezomib-resistant ANBL6; experiment: Induction of apoptosis in human bortezomib-resistant ANBL6 cells assessed as late apoptosis at 160 nM incubated for 72 hrs by annexin V and 7-AAD staining by flow cytometry analysis (Rvb=5 %); type: functional
# [5] = test system: ANBL-6; experiment: Induction of apoptosis in wild-type human ANBL-6 cells assessed as viable at 1600 nM incubated for 72 hrs by annexin V and 7-AAD staining by flow cytometry analysis (Rvb=59 %); type: functional
# [6] = test system: Bortezomib-resistant ANBL6; experiment: Induction of apoptosis in human bortezomib-resistant ANBL6 cells assessed as late apoptosis at 1600 nM incubated for 72 hrs by annexin V and 7-AAD staining by flow cytometry analysis (Rvb=5 %); type: functional
# [7] = test system: ANBL-6; experiment: Synergistic apoptosis activity in wild-type human ANBL-6 cells assessed as late apoptosis at 1600 nM incubated for 72 hrs in the presence of BTZ by annexin V and 7-AAD staining by flow cytometry analysis (Rvb=26 %); type: functional
# [8] = test system: ANBL-6; experiment: Induction of apoptosis in wild-type human ANBL-6 cells assessed as late apoptosis at 40 nM incubated for 72 hrs by annexin V and 7-AAD staining by flow cytometry analysis (Rvb=26 %); type: functional
# [9] = Synergistic antiproliferative activity against human melphalan-resistant RPMI-8226 cells assessed as reduction in cell viability at ED50 incubated for 72 hrs in presence of bortezomib by MTS assay; type: functional, Melphalan-resistant RPMI-8226 cell
# [10] = test system: ANBL-6; experiment: Synergistic apoptosis activity in wild-type human ANBL-6 cells assessed as early apoptosis at 1600 nM incubated for 72 hrs in the presence of BTZ by annexin V and 7-AAD staining by flow cytometry analysis; type: functional
# [11] = biological target: T1, Bromodomain and extra-terminal motif (BET) (Homo sapiens) (UniProt P25440+O60885+Q58F21+Q15059); conditions: ANBL-6, dose lower 40.0 nM, dose upper […]
# [12] = biological target: T1, Bromodomain and extra-terminal motif (BET) (Homo sapiens); conditions: ANBL-6, dose lower 40.0 nM, dose upper […]; remark: listed apart in the source
compound,measurement,setting,value
Cc1sc2c(c1C)C(c1ccc(Cl)cc1)=N[C@@H](CC(N)=O)c1nnc(C)n1-2,Activity,[1],23%
same,Activity,[2],18%
same,Activity,[3],31%
same,Activity,[4],4%
same,Activity,[5],31%
same,Activity,[6],16%
same,Activity,[7],10%
same,Activity,[8],28%
same,CI,[9],0.925
same,CI,[10],0.44
same,inhibition,[11],inactive
same,inhibition,[12],Active
